Measured values: patent publication US12029739B2, “SHP2 inhibitor and use thereof” (KANAPH THERAPEUTICS INC., priority 2021, dated 2024)
Read-outs that look alike come from different tables or passages of the source.

Assays:
[1] = test system: phospho-ERK in MIA PaCa2 or H358 cells; experiment: Phospho-ERK assay (AlphaLisa); type: cell-based; details: MIA PaCa2 or H358 cells, compound incubated 1.5 hours, read-out: IC50 (p-ERK)
[2] = target: T1, SHP2 (full length) (Homo sapiens, UniProt Q06124); experiment: Phosphatase assay (PTPase assay) with DiFMUP substrate; type: biochemical; details: SHP2 activated with SHP2 activating peptide; DiFMUP 80 μM, 2 hours; fluorescence; read-out: IC50 (PTPase aS say)
T1 construct: SHP2 (full length, diluted to 100 pM final concentration in reaction buffer, BPS bioscience, US); purchased BPS bioscience, US
T1 sequence (Q06124 1-593): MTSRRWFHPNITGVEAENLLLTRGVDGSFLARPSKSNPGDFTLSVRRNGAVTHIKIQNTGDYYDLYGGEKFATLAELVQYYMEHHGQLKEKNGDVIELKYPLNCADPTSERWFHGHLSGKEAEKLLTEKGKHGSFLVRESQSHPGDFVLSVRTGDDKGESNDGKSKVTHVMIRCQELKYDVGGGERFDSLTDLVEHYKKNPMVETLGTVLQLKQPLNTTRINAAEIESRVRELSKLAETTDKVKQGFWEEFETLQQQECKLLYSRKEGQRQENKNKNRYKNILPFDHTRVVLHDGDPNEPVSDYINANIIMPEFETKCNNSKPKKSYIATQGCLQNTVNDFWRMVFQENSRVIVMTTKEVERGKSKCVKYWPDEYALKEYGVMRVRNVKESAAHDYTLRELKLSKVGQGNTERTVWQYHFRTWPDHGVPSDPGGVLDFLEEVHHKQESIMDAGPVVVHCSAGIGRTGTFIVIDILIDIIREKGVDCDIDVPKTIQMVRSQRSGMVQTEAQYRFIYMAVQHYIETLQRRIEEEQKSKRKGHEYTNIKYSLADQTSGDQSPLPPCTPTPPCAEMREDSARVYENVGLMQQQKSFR

Row | Structure (SMILES) | IC50 ([1]; 1.5 h) | IC50 [2] | IC50 [1]
1 | C[C@@H]1OCC2(CCN(c3cnc(Sc4ccc5ncn(C6CCCCC6)c(=O)c5c4Cl)cn3)CC2)[C@@H]1N [Example 91, 6-((5-((3S,4S)-4-amino-3-methyl-2-oxa-8-azaspiro[4.5]decan-8-yl)pyrazin-2-yl)thio)-5-chloro-3-cyclohexylquinazolin-4(3H)-one] | 45 to 1500 nM | 3 to 100 nM | –
2 | CC(=O)Cn1cnc2ccc(Sc3cnc(N4CCC5(CC4)CO[C@@H](C)[C@H]5N)cn3)c(Cl)c2c1=O [Example 92, 6-((5-((3S,4S)-4-amino-3-methyl-2-oxa-8-azaspiro[4.5]decan-8-yl)pyrazin-2-yl)thio)-5-chloro-3-(2-oxopropyl)quinazolin-4(3H)-one] | < 45 nM | < 3 nM | –
3 | COc1ccc(C)cc1Cn1cnc2ccc(Sc3cnc(N4CCC5(CC4)CO[C@@H](C)[C@H]5N)cn3)c(Cl)c2c1=O [Example 93, 6-((5-((3S,4S)-4-amino-3-methyl-2-oxa-8-azaspiro[4.5]decan-8-yl)pyrazin-2-yl)thio)-5-chloro-3-(2-methoxy-5-methylbenzyl)quinazolin-4(3H)-one] | < 45 nM | < 3 nM | –
4 | COCCCn1cnc2ccc(Sc3cnc(N4CCC5(CC4)CO[C@@H](C)[C@H]5N)cn3)c(Cl)c2c1=O [Example 94, 6-((5-((3S,4S)-4-amino-3-methyl-2-oxa-8-azaspiro[4.5]decan-8-yl)pyrazin-2-yl)thio)-5-chloro-3-(3-methoxypropyl)quinazolin-4(3H)-one] | > 1500 nM | < 3 nM | –
5 | C[C@@H]1OCC2(CCN(c3cnc(Sc4ccc5ncn(CC(=O)N6CCCCC6)c(=O)c5c4Cl)cn3)CC2)[C@@H]1N [Example 95, 6-((5-((3S,4S)-4-amino-3-methyl-2-oxa-8-azaspiro[4.5]decan-8-yl)pyrazin-2-yl)thio)-5-chloro-3-(2-oxo-(2-piperidin-1-yl]ethyl)quinazolin-4(3H)-one] | 45 to 1500 nM | < 3 nM | –
6 | C[C@@H]1OCC2(CCN(c3cnc(Sc4ccc5ncn(CCOC(F)(F)F)c(=O)c5c4Cl)cn3)CC2)[C@@H]1N [Example 96, 6-((5-((3S,4S)-4-amino-3-methyl-2-oxa-8-azaspiro[4.5]decan-8-yl)pyrazin-2-yl)thio)-5-chloro-3-(2-(trifluoromethoxy)ethyl)quinazolin-4(3H)-one] | < 45 nM | 3 to 100 nM | –
7 | C[C@@H]1OCC2(CCN(c3cnc(Sc4ccc5ncn(CC(N)=O)c(=O)c5c4Cl)cn3)CC2)[C@@H]1N [Example 97, 2-(6-((5-((3S,4S)-4-amino-3-methyl-2-oxa-8-azaspiro[4.5]decan-8-yl)pyrazin-2-yl)thio)-5-chloro-4-oxoquinazolin-3(4H)-yl)acetamide] | < 45 nM | < 3 nM | –
8 | C[C@@H]1OCC2(CCN(c3cnc(Sc4ccc5ncn(CCC(N)=O)c(=O)c5c4Cl)cn3)CC2)[C@@H]1N [Example 98, 3-(6-((5-((3S,4S)-4-amino-3-methyl-2-oxa-8-azaspiro[4.5]decan-8-yl)pyrazin-2-yl)thio)-5-chloro-4-oxoquinazolin-3(4H)-yl)propanamide] | 45 to 1500 nM | 3 to 100 nM | –
9 | N[C@@H]1c2cccnc2CC12CCN(c1cnc(Sc3ccc4ncn(Cc5ccccc5)c(=O)c4c3Cl)cn1)CC2 [Example 102, (S)-6-((5-(5-amino-5,7-dihydrospiro[yclopenta[b]pyridine-6,4′-piperidin]-1′-yl)pyrazin-2-yl)thio)-3-benzyl-5-chloroquinazolin-4(3H)-one] | < 45 nM | < 3 nM | –
10 | N[C@@H]1c2ccccc2CC12CCN(c1cnc(Sc3ccc4ncn(CC5CCOC5)c(=O)c4c3Cl)cn1)CC2 (stereo partly drawn) [Example 103, 6-((5-((S)-1-amino-1,3-dihydrospiro[indene-2,4′-piperidin]-1′-yl]pyrazin-2-yl]thio)-5-chloro-3-((tetrahydrofuran-3-yl)methyl)quinazolin-4(3H)-one] | < 45 nM | < 3 nM | –
11 | N[C@H]1c2ccccc2CC12CCN(c1cnc(Sc3ccc4ncn(CC5CCOC5)c(=O)c4c3Cl)cn1)CC2 (stereo partly drawn) [Example 104, 6-((5-((R)-1-amino-1,3-dihydrospiro(indene-2,4′-piperidin]-1′-yl]pyrazin-2-yl]thio)-5-chloro-3-((tetrahydrofuran-3-yl)methyl)quinazolin-4(3H)-one] | < 45 nM | < 3 nM | –
12 | N[C@@H]1c2cccnc2CC12CCN(c1cnc(Sc3ccc4ncn(Cc5cccnc5)c(=O)c4c3Cl)cn1)CC2 [Example 105, (S)-6-((5-(5-amino-5,7-dihydrospiro[yclopenta[b]pyridine-6,4′-piperidin]-1′-yl)pyrazin-2-yl)thio)-5-chloro-(3-pyridin-3-ylmethyl)quinazolin-4(3H)-one] | < 45 nM | < 3 nM | –
13 | N[C@H]1c2cccnc2CC12CCN(c1cnc(Sc3ccc4ncn(Cc5cccnc5)c(=O)c4c3Cl)cn1)CC2 [Example 106, (R)-6-((5-(5-amino-5,7-dihydrospiro[yclopenta[b]pyridine-6,4′-piperidin]-1′-yl)pyrazin-2-yl)thio)-5-chloro-(3-pyridin-3-ylmethyl)quinazolin-4(3H)-one] | 45 to 1500 nM | 3 to 100 nM | –
14 | N[C@@H]1c2cccnc2CC12CCN(c1cnc(Sc3ccc4ncn(CC5CCOC5)c(=O)c4c3Cl)cn1)CC2 (stereo partly drawn) [Example 107, 6-((5-((S)-5-amino-5,7-dihydrospiro[yclopenta[b]pyridine-6,4′-piperidin]-1′-yl)pyrazin-2-yl]thio)-5-chloro-3-((tetrahydrofuran-3-yl)methyl)quinazolin-4(3H)-one] | < 45 nM | < 3 nM | –
15 | COCCn1cnc2ccc(Sc3cnc(N4CCC5(CC4)Cc4ncccc4[C@H]5N)cn3)c(Cl)c2c1=O [Example 108] | 45 to 1500 nM | 3 to 100 nM | –
16 | N[C@@H]1c2cccnc2CC12CCN(c1cnc(Sc3ccc4ncn(CCCO)c(=O)c4c3Cl)cn1)CC2 [Example 109] | < 45 nM | < 3 nM | –
17 | N[C@@H]1c2cccnc2CC12CCN(c1cnc(Sc3ccc4ncn(CCCF)c(=O)c4c3Cl)cn1)CC2 [Example 110] | < 45 nM | < 3 nM | –
18 | CC(O)CCn1cnc2ccc(Sc3cnc(N4CCC5(CC4)Cc4ncccc4[C@H]5N)cn3)c(Cl)c2c1=O (stereo partly drawn) [Example 111, (6-((5-((S)-5-amino-5,7-dihydrospiro[yclopenta[b]pyridine]-6,4′-piperidin]-1′-yl)pyrazin-2-yl]thio)-5-chloro-3-(3-hydroxybutyl)quinazolin-4(3H)-one] | < 45 nM | < 3 nM | –
19 | CC(=O)Cn1cnc2ccc(Sc3cnc(N4CCC5(CC4)Cc4ncccc4[C@H]5N)cn3)c(Cl)c2c1=O [Example 112] | – | < 3 nM | < 45 nM
20 | C[C@@H]1OCC2(CCN(c3cnc(Sc4ccc5ncn(CCC(F)(F)F)c(=O)c5c4Cl)cn3)CC2)[C@@H]1N [Example 113] | < 45 nM | < 3 nM | –
21 | C[C@@H]1OCC2(CCN(c3cnc(Sc4ccc5ncn(CCN6CCOC6=O)c(=O)c5c4Cl)cn3)CC2)[C@@H]1N [Example 114] | < 45 nM | < 3 nM | –
22 | CC(=O)NCCn1cnc2ccc(Sc3cnc(N4CCC5(CC4)CO[C@@H](C)[C@H]5N)cn3)c(Cl)c2c1=O [Example 115] | < 45 nM | < 3 nM | –
23 | CC(C)OCCn1cnc2ccc(Sc3cnc(N4CCC5(CC4)CO[C@@H](C)[C@H]5N)cn3)c(Cl)c2c1=O [Example 116, 6-((5-(3S,4S)-4-amino-3-methyl-2-oxa-8-azaspiro[4,5]decan-8-yl)pyrazin-2-yl)thio)-5-chloro-(3-(2-isopropoxyethyl)quinazolin-4(3H)-one] | < 45 nM | < 3 nM | –
24 | C[C@@H]1OCC2(CCN(c3cnc(Sc4ccc5ncn(CC6=CCOCC6)c(=O)c5c4Cl)cn3)CC2)[C@@H]1N [Example 117, 6-((5-(3S,4S)-4-amino-3-methyl-2-oxa-8-azaspiro[4,5]decan-8-yl)pyrazin-2-yl)thio)-5-chloro-(3-((3,6-dihydro-2H-pyran-4-yl)methyl)quinazolin-4(3H)-one] | 45 to 1500 nM | 3 to 100 nM | –
25 | C[C@@H]1OCC2(CCN(c3cnc(Sc4ccc5ncn(CC6CNC(=O)O6)c(=O)c5c4Cl)cn3)CC2)[C@@H]1N (stereo partly shown) [Example 118] | < 45 nM | < 3 nM | –
26 | C[C@@H]1OCC2(CCN(c3cnc(Sc4ccc5ncn(Cc6ccoc6)c(=O)c5c4Cl)cn3)CC2)[C@@H]1N [Example 119] | < 45 nM | < 3 nM | –
27 | COC(C)Cn1cnc2ccc(Sc3cnc(N4CCC5(CC4)CO[C@@H](C)[C@H]5N)cn3)c(Cl)c2c1=O (stereo partly shown) [Example 120] | < 45 nM | < 3 nM | –
28 | C[C@@H]1OCC2(CCN(c3cnc(Sc4ccc5ncn(CC6CCC(=O)CC6)c(=O)c5c4Cl)cn3)CC2)[C@@H]1N [Example 121] | < 45 nM | < 3 nM | –
29 | C[C@@H]1OCC2(CCN(c3cnc(Sc4ccc5ncn(CC(O)CO)c(=O)c5c4Cl)cn3)CC2)[C@@H]1N (stereo partly drawn) [Example 122, 6-((5-((3S,4S)-4-amino-3-methyl-2-oxa-8-azaspiro[4,5]decan-8-yl)pyrazin-2-yl)thio)-5-chloro-3-(2,3-dihydroxypropyl)quinazolin-4(3H)-one] | – | < 3 nM | < 45 nM
